The values that follow come from patent US7645752B2, “Sulfonyl substituted 1H-indoles as ligands for the 5-hydroxytryptamine receptors” (Wyeth LLC, priority 2006, dated 2010).

Usually Ki stands for a dissociation constant, usually derived from enzyme kinetics or from competition with a known ligand. By inhibition is commonly meant the relative decrease from the control value, in per cent.

SMILES strings stand for the structures.

The target of the first test is T1, human cloned 5-HT6 receptors (Homo sapiens, UniProt P50406).
T1 construct: expressed in transfected cells; host or cells: HeLa cells
T1 sequence (P50406 whole entry): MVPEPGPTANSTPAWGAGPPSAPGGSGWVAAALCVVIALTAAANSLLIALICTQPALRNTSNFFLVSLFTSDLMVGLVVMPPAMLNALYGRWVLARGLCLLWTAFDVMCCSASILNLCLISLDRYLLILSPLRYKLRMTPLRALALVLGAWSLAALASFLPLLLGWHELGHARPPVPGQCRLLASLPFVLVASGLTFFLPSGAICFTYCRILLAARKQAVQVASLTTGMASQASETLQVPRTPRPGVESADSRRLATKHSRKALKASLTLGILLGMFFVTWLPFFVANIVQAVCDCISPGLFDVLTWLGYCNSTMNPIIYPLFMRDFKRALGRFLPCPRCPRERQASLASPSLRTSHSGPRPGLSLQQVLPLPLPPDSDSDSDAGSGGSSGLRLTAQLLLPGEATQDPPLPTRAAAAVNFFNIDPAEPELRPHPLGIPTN
The test is described as follows: 5-HT6 binding affinity, [3H]-LSD displacement on membranes of Hela cells.
Settings: not given
The procedure:
The affinity of test compounds for the 5-HT6 receptor is evaluated in the following manner. Cultured Hela cells expressing human cloned 5-HT6 receptors are harvested and centrifuged at low speed (1,000×g) for 10.0 min to remove the culture media. The harvested cells are suspended in half volume of fresh physiological phosphate buffered saline solution and recentrifuged at the same speed. This operation is repeated. The collected cells are then homogenized in ten volumes of 50 mM Tris.HCl (pH 7.4) and 0.5 mM EDTA. The homogenate is centrifuged at 40,000×g for 30.0 min and the precipitate is collected. The obtained pellet is resuspended in 10 volumes of Tris.HCl buffer and recentrifuged at the same speed. The final pellet is suspended in a small volume of Tris.HCl buffer and the tissue protein content is determined in aliquots of 10-25 microliter volumes. […] The volume of the suspended cell membranes is adjusted to give a tissue protein concentration of 1.0 mg/mL of suspension. The prepared membrane suspension (10 times concentrated) is aliquoted in 1.0 mL volumes and stored at −70° C. until used in subsequent binding experiments.
Binding experiments are performed in a 96 well microtiter plate format in a total volume of 200 microliters. […] The test compounds are added in 20.0 microliter volume.
The bound complex caught on the filter disk is allowed to air dry and the radioactivity is measured in a Packard TopCount® equipped with six photomultiplier detectors, after the addition of 40.0 microliter Microscint®-20 scintillant to each shallow well.
Binding in the presence of varying concentrations of test compound is expressed as a percentage of specific binding in the absence of test compound. The results are plotted as log % bound versus log concentration of the test compound.
In turn, `CCNCCc1ccc2c(S(=O)(=O)c3ccccc3)c[nH]c2c1` [Example 88, N-ethyl-N-{2-[3-(phenylsulfonyl)-1H-indol-6-yl]ethyl}amine] returned a Ki of 96.3 nM.

Still in this test, the particulars now being: Table 1; 5-HT6 binding, at 1 micromole; read-out: % inhibition at 1 micromole.
Consider `CNCCc1cccc2[nH]cc(S(=O)(=O)c3cccc(F)c3)c12` [Example 63, N-methyl-N-{2-[3-(3-fluorophenylsulfonyl)-1H-indol-4-yl]ethyl}amine], for which the inhibition at 1 µM is 61%.
Still for that read-out and setting: the result for `CCNCCc1cccc2[nH]cc(S(=O)(=O)c3cccc(F)c3)c12` [Example 64, N-ethyl-N-{2-[3-(3-fluorophenylsulfonyl)-1H-indol-4-yl]ethyl}amine] reads 57%; that for `CCCNCCc1cccc2[nH]cc(S(=O)(=O)c3cccc(F)c3)c12` [Example 65, N-{2-[3-(3-fluorophenylsulfonyl)-1H-indol-4-yl]ethyl}-N-propylamine], 67%.
`CC(C)NCCc1cccc2[nH]cc(S(=O)(=O)c3cccc(F)c3)c12` [Example 66, N-{2-[3-(3-fluorophenylsulfonyl)-1H-indol-4-yl]ethyl}propan-2-amine]: the inhibition at 1 µM amounted to 58%.
With `O=S(=O)(c1cccc(F)c1)c1c[nH]c2cccc(CCNC3CC3)c12` [Example 67, N-{2-[3-(3-fluorophenylsulfonyl)-1H-indol-4-yl]ethyl}cyclopropanamine], the inhibition at 1 µM was 77%.
Still for that read-out and setting: as for `CN(CCc1cccc2[nH]cc(S(=O)(=O)c3cccc(F)c3)c12)C1CCCCC1` [Example 72, N-cyclohexyl-N-methyl-N-{2-[3-(3-fluorophenylsulfonyl)-1H-indol-4-yl]ethyl}amine], the figure is 66%.
Same read-out and setting: as for `CCN(CC)CCc1cccc2[nH]cc(S(=O)(=O)c3cccc(F)c3)c12` [Example 73, N,N-diethyl-N-{2-[3-(3-fluorophenylsulfonyl)-1H-indol-4-yl]ethyl}amine], the figure is 78%.
Turning to `O=S(=O)(c1cccc(F)c1)c1c[nH]c2cccc(CCN3CCCCC3)c12` [Example 75, 3-(3-fluorophenylsulfonyl)-4-(2-piperidin-1-ylethyl)-1H-indole], the inhibition at 1 µM stood at 69%.
On the same count and under the same terms, the result for `O=S(=O)(c1cccc(F)c1)c1c[nH]c2cccc(CCN3CCOCC3)c12` [Example 76, 4-(2-morpholin-4-ylethyl)-3-(3-fluorophenylsulfonyl)-1H-indole] reads 62%.
Turning to `CC(C)(C)CNCCc1cccc2[nH]cc(S(=O)(=O)c3cccc(F)c3)c12` [Example 81, N-(2,2-dimethylpropyl)-N-{2-[3-(3-fluorophenylsulfonyl)-1H-indol-4-yl]ethyl}amine], the inhibition at 1 µM turned out to be 74%.
Same read-out and setting: the result for `O=S(=O)(c1cccc(F)c1)c1c[nH]c2cccc(CCNCC3CCCO3)c12` (centres unmarked) [Example 82, N-{2-[3-(3-fluorophenylsulfonyl)-1H-indol-4-yl]ethyl}-N-((tetrahydrofur-2-yl)methyl)amine] reads 72%.
On the same count and under the same terms, the result for `CN(C)CCCNCCc1cccc2[nH]cc(S(=O)(=O)c3cccc(F)c3)c12` [Example 83, N′-{2-[3-(3-Fluorophenylsulfonyl)-1H-indol-4-yl]-ethyl}-N,N-dimethyl-propane-1,3-diamine] reads 42%; that for `CN(CCO)CCc1cccc2[nH]cc(S(=O)(=O)c3cccc(F)c3)c12` [Example 84, 2-({2-[3-(3-Fluorophenylsulfonyl)-1H-indol-4-yl]-ethyl}-methyl-amino)-ethanol], 73%.
Still for that read-out and setting: the result for `CC(C)NCCc1ccc2c(S(=O)(=O)c3ccccc3)c[nH]c2c1` [Example 90, N-{2-[3-(phenylsulfonyl)-1H-indol-6-yl]ethyl}propan-2-amine] reads 78%.
As for `O=S(=O)(c1ccccc1)c1c[nH]c2cc(CCNC3CCC3)ccc12` [Example 92, N-{2-[3-(phenylsulfonyl)-1H-indol-6-yl]ethyl}cyclobutanamine], the inhibition at 1 µM is 75%.

The same test, now with this note: Table 1; [3H]-LSD 3.0 nM, Hela cell membranes; read-out: Ki (nM) @ 5-HT6 receptor.
For the compound `CCN(C)CCc1cccc2c(S(=O)(=O)c3ccccc3)c[nH]c12` [Example 24, N-ethyl-N-methyl-N-{2-[3-(phenylsulfonyl)-1H-indol-7-yl]ethyl}amine], the Ki is 11 nM.
On the same count and under the same terms, the result for `CCN(CC)CCc1cccc2c(S(=O)(=O)c3ccccc3)c[nH]c12` [Example 25, N,N-diethyl-N-{2-[3-(phenylsulfonyl)-1H-indol-7-yl]ethyl}amine] reads 21 nM; that for `O=S(=O)(c1ccccc1)c1c[nH]c2c(CCN3CCCC3)cccc12` [Example 26, 3-(phenylsulfonyl)-7-(2-pyrrolidin-1-ylethyl)-1H-indole], 18 nM; that for `O=S(=O)(c1ccccc1)c1c[nH]c2c(CCN3CCCCC3)cccc12` [Example 27, 3-(phenylsulfonyl)-7-(2-piperidin-1-ylethyl)-1H-indole], 13 nM.
For `O=S(=O)(c1ccccc1)c1c[nH]c2c(CCN3CCOCC3)cccc12` [Example 28, 7-(2-morpholin-4-ylethyl)-3-(phenylsulfonyl)-1H-indole], the Ki was determined as 99 nM.
With `NCCc1cccc2c(S(=O)(=O)c3ccccc3)c[nH]c12` [Example 29, {2-[3-(phenylsulfonyl)-1H-indol-7-yl]ethyl}amine], the Ki was determined as 1.5 nM.
As for `O=S(=O)(c1ccccc1)c1c[nH]c2c(CCN3CCNCC3)cccc12` [Example 30, 3-(phenylsulfonyl)-7-(2-piperazin-1-ylethyl)-1H-indole], the Ki is 7.5 nM.
Consider `O=S(=O)(c1cccc(F)c1)c1c[nH]c2cccc(CCNC3CCC3)c12` [Example 68, N-{2-[3-(3-fluorophenylsulfonyl)-1H-indol-4-yl]ethyl}cyclobutanamine], for which the Ki is 23.5 nM.
Still for that read-out and setting: as for `O=S(=O)(c1cccc(F)c1)c1c[nH]c2cccc(CCNC3CCCC3)c12` [Example 69, N-{2-[3-(3-fluorophenylsulfonyl)-1H-indol-4-yl]ethyl}cyclopentanamine], the figure is 78 nM.
On to `O=S(=O)(c1cccc(F)c1)c1c[nH]c2cccc(CCNC3CCCCC3)c12` [Example 70, N-{2-[3-(3-fluorophenylsulfonyl)-1H-indol-4-yl]ethyl}cyclohexanamine], for which the Ki is 180 nM.
Turning to `CCN(C)CCc1cccc2[nH]cc(S(=O)(=O)c3cccc(F)c3)c12` [Example 71, N-ethyl-N-methyl-N-{2-[3-(3-fluorophenylsulfonyl)-1H-indol-4-yl]ethyl}amine], the Ki was determined as 116 nM.
Regarding `O=S(=O)(c1cccc(F)c1)c1c[nH]c2cccc(CCN3CCCC3)c12` [Example 74, 3-(3-fluorophenylsulfonyl)-4-(2-pyrrolidin-1-ylethyl)-1H-indole], the Ki turned out to be 72 nM.
For `CC(C)CNCCc1cccc2[nH]cc(S(=O)(=O)c3cccc(F)c3)c12` [Example 77, N-isobutyl-N-{2-[3-(3-fluorophenylsulfonyl)-1H-indol-4-yl]ethyl}amine], the Ki was 14 nM.
`CCC(CC)NCCc1cccc2[nH]cc(S(=O)(=O)c3cccc(F)c3)c12` [Example 78, (1-Ethyl-propyl)-{2-[3-(3-fluorophenylsulfonyl)-1H-indol-4-yl]-ethyl}-amine]: the Ki was 80 nM.
The same measure, in the same setting: as for `CCC(C)CNCCc1cccc2[nH]cc(S(=O)(=O)c3cccc(F)c3)c12` (centres unmarked) [Example 79, {2-[3-(3-Fluorophenylsulfonyl)-1H-indol-4-yl]-ethyl}-(2-methyl-butyl)-amine], the figure is 120 nM.
On the same count and under the same terms, the result for `CC(NCCc1cccc2[nH]cc(S(=O)(=O)c3cccc(F)c3)c12)C(C)(C)C` (centres unmarked) [Example 80, N-{2-[3-(3-fluorophenylsulfonyl)-1H-indol-4-yl]ethyl}-N-(1,2,2-trimethylpropyl)amine] reads 13 nM; that for `NCCc1cccc2[nH]cc(S(=O)(=O)c3cccc(F)c3)c12` [Example 85, {2-[3-(3-fluorophenylsulfonyl)-1H-indol-4-yl]ethyl}amine], 348 nM.
Same read-out and setting: the result for `CN(C)CCc1ccc2c(S(=O)(=O)c3ccccc3)c[nH]c2c1` [Example 86, N,N-dimethyl-N-{2-[3-(phenylsulfonyl)-1H-indol-6-yl]ethyl}amine] reads 41.3 nM; that for `CNCCc1ccc2c(S(=O)(=O)c3ccccc3)c[nH]c2c1` [Example 87, N-methyl-N-{2-[3-(phenylsulfonyl)-1H-indol-6-yl]ethyl}amine], 10.5 nM; that for `CCCNCCc1ccc2c(S(=O)(=O)c3ccccc3)c[nH]c2c1` [Example 89, N-{2-[3-(phenylsulfonyl)-1H-indol-6-yl]ethyl}-N-propylamine], 150 nM.
In the case of `O=S(=O)(c1ccccc1)c1c[nH]c2cc(CCNC3CC3)ccc12` [Example 91, N-{2-[3-(phenylsulfonyl)-1H-indol-6-yl]ethyl}cyclopropanamine], the Ki is 41 nM.

The same test, now with this note: read-out: % inhibition at 1 micromole.
Regarding `CN(C)CCc1cccc2[nH]cc(S(=O)(=O)c3cccc(F)c3)c12` [Example 62, N,N-dimethyl-N-{2-[3-(3-fluorophenylsulfonyl)-1H-indol-4-yl]ethyl}amine], the inhibition at 1 µM came to 72%.
